Test [1] has as its system constitutive active Wnt pathway (HCT116 TOPFlash). Description: Cellular reporter assay, HCT116 Super TopFlash (constitutive active Wnt pathway). The settings on record: Homo sapiens, HCT-116; HCT116 stably transfected with Super TopFlash vector; 36 hours incubation; luciferase expression. The class given is cell-based. As to the method:
In order to discover and characterize small molecules which inhibit the constitutive active colorectal cancer cell (CRC) Wnt pathway, a cellular reporter assay was employed. The corresponding assay cell was generated by transfection of the colorectal cancer cell line HCT116 (ATCC, #CCL-247) with the Super TopFlash vector (Morin, Science 275, 1997, 1787-1790; Molenaar et al., Cell 86 (3), 1996, 391-399). The HCT116 cell line is cultivated at 37° C. and 5% CO2 in DMEM/F-12 (Life Technologies, #11320-074), supplemented with 2 mM glutamine, 20 mM HEPES, 1.4 mM pyruvate, 0.15% Na-bicarbonate and 10% foetal bovine serum (GIBCO, #10270), this cancer cell line is pathophysiological relevant since it carries a deletion of position S45 in the β-catenin gene, leading to constitutive active Wnt signaling. Stable transfectants were generated by cotransfection with pcDNA3 and selection of stable transfected cells with 1 mg/ml G418.
(§1) In a parallel approach, HCT116 cells were cotransfected with the FOP control vector and pcDNA3. The FOP vector is identical to the TOP construct, but it contains instead of functional TCF elements a randomized, non-functional sequence. For this transfection a stable transfected cell line was generated as well.
(§2) In preparation of the assay, the two cell lines were plated 24 hours before at 10000 cells per well of a 384 micro titre plate (MTP) in 30 μL growth medium. Selective inhibitory activity for small molecules on the mutated Wnt pathway was determined after parallel incubation of both (TOP and FOP) HCT116 reporter cell lines with a compound dilution series from 50 μM to 15 nM in steps of 3.16-fold dilutions in CAFTY buffer (130 mM NaCl, 5 mM KCl, 20 mM HEPES, 1 mM MgCl2, 5 mM NaHCO3, pH 7.4) containing 2 mM Ca^2+ and 0.01% BSA. The compounds were thereby serially prediluted in 100% DMSO and thereafter in addition 50 fold into the CAFTY compound dilution buffer (described above). From this dilution 10 μL were added to the cells in 30 μL growth medium and incubated for 36 hours at 37° C. and 5% CO2. Thereafter luciferase assay buffer (1:1 mixture of luciferase substrate buffer (20 mM Tricine, 2.67 mM MgSO4, 0.1 mM EDTA, 4 mM DTT, 270 μM Coenzyme A, 470 μM Luciferin, 530 μM ATP, ph adjusted to pH 7.8 with a sufficient volume of 5M NaOH) and Triton buffer (30 mL Triton X-100, 115 mL glycerol, 308 mg Dithiothreitol, 4.45 g Na2HPO4.2H2O, 3.03 g TRIS HCl, ad 1 l H20, pH 7.8) was added as equal volume to the compound solution on the cells to determine luciferase expression as a measure of Wnt signaling activity in a luminometer.
Background: In a reporter assay the amount or activity of a reporter protein is the signal.

Test [2] deals with HCT116 FOPFlash (FOP control vector, non-functional TCF elements). The test can be described thus: Cellular control reporter assay, HCT116 FOP control vector. The class given is cell-based. The settings on record: Homo sapiens, HCT-116; HCT116 stably transfected with FOP control vector; 36 hours incubation; luciferase expression; dilution series from 50 μM. As for the experimental part: as §1, §2

For `CN1CCN(CC(=O)Nc2cc(C(=O)Nc3ccc(-c4ccc(N)nc4)nn3)ccc2OC(F)(F)F)CC1` [Example 1, N-[6-(6-aminopyridin-3-yl)pyridazin-3-yl]-3-{[(4-methylpiperazin-1-yl)acetyl]amino}-4-(trifluoromethoxy)benzamide], the figures for the IC50 in test [1] and in test [2] were 24.8 nM and at least 50000 nM, respectively.

On to `CN1CCN(CC(=O)Nc2cc(C(=O)Nc3ccc(-c4cncnc4)nn3)ccc2OC(F)(F)F)CC1` [Example 2, 3-{[(4-methylpiperazin-1-yl)acetyl]amino}-N-[6-(pyrimidin-5-yl)pyridazin-3-yl]-4-(trifluoromethoxy)benzamide], for which the IC50 in test [1] was 162 nM; in test [2], at least 50000 nM.

For `CN1CCN(CC(=O)Nc2cc(C(=O)Nc3ccc(-c4cnc(N)nc4)nn3)ccc2OC(F)(F)F)CC1` [Example 3, N-[6-(2-aminopyrimidin-5-yl)pyridazin-3-yl]-3-{[(4-methylpiperazin-1-yl)acetyl]amino}-4-(trifluoromethoxy)benzamide], the 50% inhibitory concentration (IC50) was 99.2 nM in test [1] and at least 50000 nM in test [2]. The corresponding values for `CN1CCN(CC(=O)Nc2cc(C(=O)Nc3ccc(-c4cccnc4)nn3)ccc2OC(F)(F)F)CC1` [Example 4, 3-{[(4-methylpiperazin-1-yl)acetyl]amino}-N-[6-(pyridin-3-yl)pyridazin-3-yl]-4-(trifluoromethoxy)benzamide] are 17.5 nM and at least 50000 nM.

For the compound `O=C(CN1CCN(CC(F)F)CC1)Nc1cc(C(=O)Nc2ccc(-c3ccccc3)nn2)ccc1OC(F)(F)F` [Example 5, 3-({[4-(2,2-difluoroethyl)piperazin-1-yl]acetyl}amino)-N-(6-phenylpyridazin-3-yl)-4-(trifluoromethoxy)benzamide], the IC50 is 205 nM in test [1] and at least 50000 nM in test [2].

Consider `O=C(CN1CCOCC1)Nc1cc(NC(=O)c2cnc(-c3ccccc3)cn2)ccc1OC(F)(F)F` [Example 6, N-{3-[(morpholin-4-ylacetyl)amino]-4-(trifluoromethoxy)phenyl}-5-phenylpyrazine-2-carboxamide], for which the IC50 in test [1] is 834 nM; in test [2], at least 50000 nM.

Regarding `O=C(CN1CCOCC1)Nc1cc(C(=O)Nc2ccc(-c3ccccc3)nn2)ccc1OC(F)(F)F` [Example 7, 3-[(morpholin-4-ylacetyl)amino]-N-(6-phenylpyridazin-3-yl)-4-(trifluoromethoxy)benzamide], the half-maximal inhibitory concentration (IC50) in test [1] was 20 nM; in test [2], at least 50000 nM.

Take `O=C(CN1C[C@@H]2C[C@H]1CO2)Nc1cc(C(=O)Nc2ccc(-c3ccccc3)nn2)ccc1OC(F)(F)F` [Example 8, 3-{[(1S,4S)-2-oxa-5-azabicyclo[2.2.1]hept-5-ylacetyl]amino}-N-(6-phenylpyridazin-3-yl)-4-(trifluoromethoxy)benzamide]: the IC50 in test [1] was 125 nM; in test [2], at least 50000 nM. On to `CN1CCN(CC(=O)Nc2cc(C(=O)Nc3ccc(-c4ccccc4)nn3)ccc2OC(F)(F)F)CC1` [Example 9, 3-{[(4-methylpiperazin-1-yl)acetyl]amino}-N-(6-phenylpyridazin-3-yl)-4-(trifluoromethoxy)benzamide], for which the half-maximal inhibitory concentration (IC50) was 29.7 nM in test [1] and at least 50000 nM in test [2].

Regarding `O=C(CN1CCOCC1)Nc1cc(C(=O)Nc2cnc(-c3ccccc3)cn2)ccc1OC(F)(F)F` [Example 10, 3-[(morpholin-4-ylacetyl)amino]-N-(5-phenylpyrazin-2-yl)-4-(trifluoromethoxy)benzamide], the IC50 in test [1] is 63.2 nM; in test [2], at least 50000 nM. In the same order, the values of `CN1CCN(CC(=O)Nc2cc(C(=O)Nc3cnc(-c4ccccc4)cn3)ccc2OC(F)(F)F)CC1` [Example 11, 3-{[(4-methylpiperazin-1-yl)acetyl]amino}-N-(5-phenylpyrazin-2-yl)-4-(trifluoromethoxy)benzamide] are 13 nM and at least 50000 nM. The corresponding values for `CN1CCN(CC(=O)Nc2cc(C(=O)Nc3ccc(-c4cccnc4F)nn3)ccc2OC(F)(F)F)CC1` [Example 12, N-[6-(2-fluoropyridin-3-yl)pyridazin-3-yl]-3-{[(4-methylpiperazin-1-yl)acetyl]amino}-4-(trifluoromethoxy)benzamide] are 120 nM and at least 50000 nM. As for `Nc1ncc(-c2ccc(NC(=O)c3ccc(OC(F)(F)F)c(NC(=O)CN4CCOCC4)c3)nn2)cn1` [Example 13, N-[6-(2-aminopyrimidin-5-yl)pyridazin-3-yl]-3-[(morpholin-4-ylacetyl)amino]-4-(trifluoromethoxy)benzamide], the figures for the IC50 in test [1] and in test [2] were 67.2 nM and at least 50000 nM, respectively. In the same order, the values of `O=C(CN1CCOCC1)Nc1cc(C(=O)Nc2ccc(-c3cccnc3)nn2)ccc1OC(F)(F)F` [Example 14, 3-[(morpholin-4-ylacetyl)amino]-N-[6-(pyridin-3-yl)pyridazin-3-yl]-4-(trifluoromethoxy)benzamide] are 54 nM and at least 50000 nM. Take `O=C(CN1CCOCC1)Nc1cc(C(=O)Nc2ccc(-c3cncnc3)nn2)ccc1OC(F)(F)F` [Example 15, 3-[(morpholin-4-ylacetyl)amino]-N-[6-(pyrimidin-5-yl)pyridazin-3-yl]-4-(trifluoromethoxy)benzamide]: the IC50 in test [1] was 636 nM; in test [2] it was at least 50000 nM.

In the case of `Nc1ccc(-c2ccc(NC(=O)c3ccc(OC(F)(F)F)c(NC(=O)CN4CCOCC4)c3)nn2)cn1` [Example 16, N-[6-(6-aminopyridin-3-yl)pyridazin-3-yl]-3-[(morpholin-4-ylacetyl)amino]-4-(trifluoromethoxy)benzamide], the IC50 was 43.3 nM in test [1] and at least 50000 nM in test [2]. Take `O=C(CN1CCOCC1)Nc1cc(C(=O)Nc2ccc(-c3cccnc3F)nn2)ccc1OC(F)(F)F` [Example 17, N-[6-(2-fluoropyridin-3-yl)pyridazin-3-yl]-3-[(morpholin-4-ylacetyl)amino]-4-(trifluoromethoxy)benzamide]: the IC50 was 418 nM in test [1] and at least 50000 nM in test [2].

`CN1CCN(CC(=O)Nc2cc(C(=O)Nc3ncc(-c4ccccc4)nn3)ccc2OC(F)(F)F)CC1` [Example 18, 3-{[(4-methylpiperazin-1-yl)acetyl]amino}-N-(6-phenyl-1,2,4-triazin-3-yl)-4-(trifluoromethoxy)benzamide]: the 50% inhibitory concentration (IC50) in test [1] was determined as 16 nM; in test [2], 20000 nM. Take `CN1CCN(CC(=O)Nc2cc(C(=O)Nc3ncc(-c4ccccc4)cn3)ccc2OC(F)(F)F)CC1` [Example 19, 3-{[(4-methylpiperazin-1-yl)acetyl]amino}-N-(5-phenylpyrimidin-2-yl)-4-(trifluoromethoxy)benzamide]: the IC50 was 325 nM in test [1] and at least 50000 nM in test [2].

Regarding `O=C(Nc1cnc(-c2ccccc2)cn1)c1ccc(OC(F)(F)F)c(NC(=O)C2(N3CCOCC3)CC2)c1` [Example 20, 3-({[1-(morpholin-4-yl)cyclopropyl]carbonyl}amino)-N-(5-phenylpyrazin-2-yl)-4-(trifluoromethoxy)benzamide], the IC50 in test [1] was 14.4 nM; in test [2], at least 50000 nM. In the case of `CN1CCN(CC(=O)Nc2cc(C(=O)Nc3cnc(-c4ccc(N)nc4)cn3)ccc2OC(F)(F)F)CC1` [Example 24, N-[5-(6-aminopyridin-3-yl)pyrazin-2-yl]-3-{[(4-methylpiperazin-1-yl)acetyl]amino}-4-(trifluoromethoxy)benzamide], the IC50 in test [2] was at least 50000 nM.

In turn, `O=C(Nc1ccc([N+](=O)[O-])cc1Cl)c1cc(Cl)ccc1O` [Ref., niclosamide, reference compound] showed an IC50 in test [2] of 3100 nM. In other words, the single-digit micromolar range.

For orientation: IC50 means the concentration that gives 50% inhibition.

These data come from patent publication US20170114070A1, “INHIBITORS OF THE WNT SIGNALLING PATHWAYS” (Bayer Pharma Aktiengesellschaft, priority 2014, published 2017).
